Test results published in ChEMBL document CHEMBL6103646 (J Med Chem, 2025).
pIC50: −log10 of the molar value. The source made the active and inactive calls. The rule behind the calls is not given here.

What was measured:
[1] = target: Histone deacetylase 2 (Homo sapiens) (UniProt Q92769); assay: Inhibition of HDAC2 in human MM1.S cells assessed as increase in acetylated histone H3 level at 1 uM incubated for 6 hrs by Western blot analysis; assay type: cell-based
[2] = target: Histone deacetylase 1 (Homo sapiens) (UniProt Q13547); assay: Inhibition of HDAC1 in human MM1.S cells assessed as increase in acetylated histone H3 level at 1 uM incubated for 6 hrs by Western blot analysis; assay type: cell-based
Sequence of Histone deacetylase 1 (Homo sapiens) (Q13547 whole entry): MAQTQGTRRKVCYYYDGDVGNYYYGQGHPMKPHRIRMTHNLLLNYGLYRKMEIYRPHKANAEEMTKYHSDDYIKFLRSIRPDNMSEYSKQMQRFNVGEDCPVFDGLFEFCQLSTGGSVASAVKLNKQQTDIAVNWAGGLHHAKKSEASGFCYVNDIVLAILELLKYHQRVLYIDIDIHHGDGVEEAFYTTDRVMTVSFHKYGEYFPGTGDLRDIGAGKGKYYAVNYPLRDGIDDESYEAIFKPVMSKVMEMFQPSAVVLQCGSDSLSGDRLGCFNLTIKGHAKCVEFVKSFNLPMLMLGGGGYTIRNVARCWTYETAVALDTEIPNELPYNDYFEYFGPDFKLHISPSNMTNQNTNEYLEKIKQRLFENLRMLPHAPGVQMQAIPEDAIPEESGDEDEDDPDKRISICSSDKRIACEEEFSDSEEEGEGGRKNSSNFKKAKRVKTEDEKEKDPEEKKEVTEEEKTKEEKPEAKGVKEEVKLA

[3] = Stability of compound in human whole blood assessed as half-life at 1 uM measured upto 40 mins by LC-MS/MS analysis; assay type: ADME, tissue-based
[4] = target: Protein cereblon/Protein deacetylase HDAC6 (Homo sapiens) (UniProt Q9UBN7+Q96SW2); assay: PROTAC activity at CRBN/HDAC6 in human MM1.S cells assessed as induction of HDAC6 degradation at 0.1 to 1 uM by Western blot analysis; assay type: cell-based; conditions: dose 0.1-1 µM
Sequence of Protein cereblon/Protein deacetylase HDAC6 (Homo sapiens) (Q96SW2 whole entry, looked up): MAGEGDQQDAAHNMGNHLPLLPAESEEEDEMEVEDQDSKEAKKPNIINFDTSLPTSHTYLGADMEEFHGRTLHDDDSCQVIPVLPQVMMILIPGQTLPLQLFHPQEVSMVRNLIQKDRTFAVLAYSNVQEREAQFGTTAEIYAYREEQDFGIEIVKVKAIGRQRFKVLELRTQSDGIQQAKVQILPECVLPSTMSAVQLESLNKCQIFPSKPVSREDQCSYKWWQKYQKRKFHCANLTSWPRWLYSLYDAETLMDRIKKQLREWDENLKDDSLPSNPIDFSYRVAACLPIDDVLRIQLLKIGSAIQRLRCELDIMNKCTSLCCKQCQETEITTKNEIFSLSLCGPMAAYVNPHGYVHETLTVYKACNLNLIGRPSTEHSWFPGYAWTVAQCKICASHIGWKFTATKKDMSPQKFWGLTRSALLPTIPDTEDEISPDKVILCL
Sequence of Protein cereblon/Protein deacetylase HDAC6 (Homo sapiens) (Q9UBN7 whole entry, looked up): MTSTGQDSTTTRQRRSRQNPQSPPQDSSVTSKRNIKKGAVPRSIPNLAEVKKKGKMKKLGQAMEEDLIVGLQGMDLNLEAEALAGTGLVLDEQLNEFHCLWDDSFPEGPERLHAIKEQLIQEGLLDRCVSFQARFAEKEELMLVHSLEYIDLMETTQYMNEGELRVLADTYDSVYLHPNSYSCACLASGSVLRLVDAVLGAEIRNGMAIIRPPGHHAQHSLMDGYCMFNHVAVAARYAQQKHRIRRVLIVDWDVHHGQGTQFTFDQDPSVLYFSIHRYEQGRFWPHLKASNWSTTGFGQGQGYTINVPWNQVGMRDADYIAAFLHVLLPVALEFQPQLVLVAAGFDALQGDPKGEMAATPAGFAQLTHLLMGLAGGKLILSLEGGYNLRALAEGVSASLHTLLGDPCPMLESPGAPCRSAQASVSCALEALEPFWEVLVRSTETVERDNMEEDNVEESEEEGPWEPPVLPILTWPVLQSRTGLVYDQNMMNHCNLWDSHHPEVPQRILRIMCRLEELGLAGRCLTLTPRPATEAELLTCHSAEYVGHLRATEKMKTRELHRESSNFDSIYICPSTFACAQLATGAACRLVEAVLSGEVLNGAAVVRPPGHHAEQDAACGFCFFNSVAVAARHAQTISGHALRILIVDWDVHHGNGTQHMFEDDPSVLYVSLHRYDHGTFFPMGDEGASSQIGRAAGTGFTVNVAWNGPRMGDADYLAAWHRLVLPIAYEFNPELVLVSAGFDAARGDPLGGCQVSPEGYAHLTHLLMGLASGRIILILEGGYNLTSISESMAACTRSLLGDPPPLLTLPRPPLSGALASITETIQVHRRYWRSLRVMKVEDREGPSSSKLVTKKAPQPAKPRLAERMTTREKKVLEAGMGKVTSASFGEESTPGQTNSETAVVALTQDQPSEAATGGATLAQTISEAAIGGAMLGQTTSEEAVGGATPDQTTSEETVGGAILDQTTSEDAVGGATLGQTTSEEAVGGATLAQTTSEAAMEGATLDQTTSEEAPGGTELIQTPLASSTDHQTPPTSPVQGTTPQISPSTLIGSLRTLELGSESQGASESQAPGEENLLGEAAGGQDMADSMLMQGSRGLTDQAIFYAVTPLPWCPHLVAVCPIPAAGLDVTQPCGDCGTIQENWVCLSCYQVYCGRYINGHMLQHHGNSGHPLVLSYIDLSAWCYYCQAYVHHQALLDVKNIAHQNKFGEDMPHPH

[5] = target: Protein cereblon/Protein deacetylase HDAC6 (Mus musculus) (UniProt Q9Z2V5+Q8C7D2); assay: In vivo PROTAC activity at CRBN/HDAC6 in female C57BL/6J mouse assessed as reduction in HDAC6 protein level in liver at 5 mg/kg, iv measured after 6 hrs by Western blot analysis relative to control; assay type: functional, organism-based; parameters: scale not given: the % may be the effect or the level left
Sequence of Protein cereblon/Protein deacetylase HDAC6 (Mus musculus) (Q8C7D2 whole entry, looked up): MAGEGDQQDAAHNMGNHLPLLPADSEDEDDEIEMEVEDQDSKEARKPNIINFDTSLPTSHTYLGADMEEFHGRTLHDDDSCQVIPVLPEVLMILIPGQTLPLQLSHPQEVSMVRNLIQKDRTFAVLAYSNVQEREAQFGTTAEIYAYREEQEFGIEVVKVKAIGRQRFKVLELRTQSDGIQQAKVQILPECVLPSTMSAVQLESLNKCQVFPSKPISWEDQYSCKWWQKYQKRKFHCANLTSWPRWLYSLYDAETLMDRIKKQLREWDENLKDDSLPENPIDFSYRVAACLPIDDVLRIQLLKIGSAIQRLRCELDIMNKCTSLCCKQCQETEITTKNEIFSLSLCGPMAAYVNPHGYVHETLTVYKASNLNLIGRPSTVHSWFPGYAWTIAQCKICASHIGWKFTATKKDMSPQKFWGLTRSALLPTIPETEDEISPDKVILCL
Sequence of Protein cereblon/Protein deacetylase HDAC6 (Mus musculus) (Q9Z2V5 whole entry, looked up): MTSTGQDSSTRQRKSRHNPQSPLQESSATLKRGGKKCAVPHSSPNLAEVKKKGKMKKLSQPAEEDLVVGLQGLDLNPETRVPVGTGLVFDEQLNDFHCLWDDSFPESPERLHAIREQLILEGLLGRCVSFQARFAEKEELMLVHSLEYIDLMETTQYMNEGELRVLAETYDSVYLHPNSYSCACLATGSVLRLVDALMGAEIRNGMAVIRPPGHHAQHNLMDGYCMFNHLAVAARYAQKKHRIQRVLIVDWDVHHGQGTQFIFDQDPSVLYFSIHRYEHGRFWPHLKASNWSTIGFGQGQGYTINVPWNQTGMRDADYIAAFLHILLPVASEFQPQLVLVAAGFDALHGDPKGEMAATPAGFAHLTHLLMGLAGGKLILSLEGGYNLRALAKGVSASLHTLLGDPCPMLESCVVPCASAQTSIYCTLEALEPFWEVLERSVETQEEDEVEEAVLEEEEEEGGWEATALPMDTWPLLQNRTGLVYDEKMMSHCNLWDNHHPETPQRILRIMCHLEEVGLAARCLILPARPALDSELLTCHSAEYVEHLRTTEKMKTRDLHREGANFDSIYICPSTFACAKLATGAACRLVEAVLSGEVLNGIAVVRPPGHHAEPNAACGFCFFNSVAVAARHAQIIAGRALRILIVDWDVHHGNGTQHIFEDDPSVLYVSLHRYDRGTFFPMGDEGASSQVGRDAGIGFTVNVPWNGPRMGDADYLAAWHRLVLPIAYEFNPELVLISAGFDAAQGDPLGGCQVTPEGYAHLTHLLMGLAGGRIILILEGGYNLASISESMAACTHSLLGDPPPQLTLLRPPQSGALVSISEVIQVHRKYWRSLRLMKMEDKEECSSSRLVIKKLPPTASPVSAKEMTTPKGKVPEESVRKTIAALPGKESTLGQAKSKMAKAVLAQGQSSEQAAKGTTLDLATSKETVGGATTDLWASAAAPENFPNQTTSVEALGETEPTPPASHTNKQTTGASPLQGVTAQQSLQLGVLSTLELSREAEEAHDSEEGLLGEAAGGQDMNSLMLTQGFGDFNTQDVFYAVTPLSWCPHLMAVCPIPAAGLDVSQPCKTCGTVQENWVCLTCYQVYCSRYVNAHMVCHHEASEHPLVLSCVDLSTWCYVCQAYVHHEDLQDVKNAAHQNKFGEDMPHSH

[6] = system: N2a; assay: Antiproliferative activity against mouse Neuro2a cells assessed as effect on cell viability by CellTiter-Glo assay; assay type: functional, cell-based
[7] = system: MM1.S; assay: Antiproliferative activity against human MM1.S cells assessed as reduction in cell viability measured after 72 hrs by CellTiter-Glo assay; assay type: functional, cell-based
[8] = target: T1, Histone deacetylase 11 (Homo sapiens, UniProt Q96DB2); assay: Inhibition of HDAC11 (unknown origin) using FAM-labeled peptide substrate by […] mobility shift assay
T1 sequence (Q96DB2 whole entry): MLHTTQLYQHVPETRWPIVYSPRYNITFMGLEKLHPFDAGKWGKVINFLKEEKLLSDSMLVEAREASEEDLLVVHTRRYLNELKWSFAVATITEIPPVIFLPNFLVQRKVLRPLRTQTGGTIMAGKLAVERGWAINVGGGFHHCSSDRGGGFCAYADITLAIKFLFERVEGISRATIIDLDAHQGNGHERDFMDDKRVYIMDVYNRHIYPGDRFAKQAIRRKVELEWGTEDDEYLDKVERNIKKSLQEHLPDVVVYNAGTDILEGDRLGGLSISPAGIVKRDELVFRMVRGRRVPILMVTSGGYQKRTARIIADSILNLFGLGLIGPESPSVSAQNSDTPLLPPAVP

[9] = Selectivity index, ratio of IC50 for inhibition of HDAC8 (unknown origin) to IC50 for inhibition of HDAC6 (unknown origin)
[10] = target: T2, Histone deacetylase 8 (Homo sapiens, UniProt Q9BY41); assay: Inhibition of HDAC8 (unknown origin) using FAM-labeled peptide substrate by […] mobility shift assay
T2 sequence (Q9BY41 whole entry): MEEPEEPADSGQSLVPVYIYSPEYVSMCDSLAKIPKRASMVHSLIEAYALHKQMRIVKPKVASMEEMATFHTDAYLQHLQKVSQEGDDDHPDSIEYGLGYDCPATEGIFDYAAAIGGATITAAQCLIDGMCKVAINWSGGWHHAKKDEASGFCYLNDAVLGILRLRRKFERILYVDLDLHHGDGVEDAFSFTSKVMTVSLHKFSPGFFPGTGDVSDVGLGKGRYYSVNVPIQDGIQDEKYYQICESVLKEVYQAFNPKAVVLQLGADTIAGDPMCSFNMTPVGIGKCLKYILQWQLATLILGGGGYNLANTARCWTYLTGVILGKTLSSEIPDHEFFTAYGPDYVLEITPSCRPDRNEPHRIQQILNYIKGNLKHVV

Sequence of Histone deacetylase 2 (Homo sapiens) (Q92769 whole entry): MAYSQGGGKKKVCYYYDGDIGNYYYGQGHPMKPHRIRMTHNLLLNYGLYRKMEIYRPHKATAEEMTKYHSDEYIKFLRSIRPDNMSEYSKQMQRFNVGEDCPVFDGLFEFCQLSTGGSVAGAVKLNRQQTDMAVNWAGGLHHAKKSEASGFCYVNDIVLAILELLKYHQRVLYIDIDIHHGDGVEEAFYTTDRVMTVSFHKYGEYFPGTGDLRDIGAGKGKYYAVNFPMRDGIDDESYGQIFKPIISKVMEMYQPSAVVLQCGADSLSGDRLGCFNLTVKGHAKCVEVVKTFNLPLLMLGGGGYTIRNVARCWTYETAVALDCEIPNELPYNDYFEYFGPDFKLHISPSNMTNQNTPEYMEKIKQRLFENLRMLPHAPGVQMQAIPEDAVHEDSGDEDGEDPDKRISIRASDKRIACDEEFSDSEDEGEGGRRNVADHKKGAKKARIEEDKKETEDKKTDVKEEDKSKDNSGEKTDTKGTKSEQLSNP

inhibition [1] | inhibition [2] | half-life at 1 µM [3] | Compound | also measured
inactive | inactive | 1.06 h | O=C1CCC(N2C(=O)c3cccc(NCCOCCOCCN(Cc4ccc(C(=O)NO)cc4)Cc4cccnc4)c3C2=O)C(=O)N1 (stereo unspecified) | 
inactive | inactive | 1.01 h | O=C1CCC(N2C(=O)c3cccc(NCCOCCn4cc(CCCCN(Cc5ccc(C(=O)NO)cc5)Cc5cccnc5)nn4)c3C2=O)C(=O)N1 (stereo unspecified) | 
 |  |  | CN1C(=O)CCC(N2C(=O)c3cccc(NCCOCCOCCn4cc(CN(Cc5ccc(C(=O)NO)cc5)Cc5cccnc5)nn4)c3C2=O)C1=O (stereo unspecified) | Activity [4]: inactive
inactive | inactive | 1.33 h | O=C1CCC(N2C(=O)c3cccc(NCCOCCn4cc(CN(Cc5ccc(C(=O)NO)cc5)Cc5cccnc5)nn4)c3C2=O)C(=O)N1 (stereo unspecified) | Activity [5]: 60%; Activity [6]: inactive; Activity [7]: Active; Minimal Effect Observed Compared To To-317,Ricolinostat An D Citarinostat
inactive | inactive | 1.36 h | O=C1CCC(N2C(=O)c3cccc(NCCOCCN(Cc4ccc(C(=O)NO)cc4)Cc4cccnc4)c3C2=O)C(=O)N1 (stereo unspecified) | 
inactive | inactive | 0.704 h | O=C1CCC(N2C(=O)c3cccc(NCCCCCCn4cc(CN(Cc5ccc(C(=O)NO)cc5)Cc5cccnc5)nn4)c3C2=O)C(=O)N1 (stereo unspecified) | 
inactive | inactive | 1.05 h | O=C1CCC(N2C(=O)c3cccc(NCCCn4cc(CCCCN(Cc5ccc(C(=O)NO)cc5)Cc5cccnc5)nn4)c3C2=O)C(=O)N1 (stereo unspecified) | Activity [6]: inactive; Activity [7]: inactive
inactive | inactive | 0.864 h | O=C1CCC(N2C(=O)c3cccc(NCCOCCOCCn4cc(CCCCN(Cc5ccc(C(=O)NO)cc5)Cc5cccnc5)nn4)c3C2=O)C(=O)N1 (stereo unspecified) | 
 |  |  | O=C(NO)c1ccc(CN(Cc2cccnc2)S(=O)(=O)c2cc(F)c(F)c(F)c2F)cc1 | pIC50 [8]: < 6.00; Ratio IC50 [9]: 158; pIC50 [10]: 7.50
inactive | inactive | 1.29 h | O=C1CCC(N2C(=O)c3cccc(NCCN(Cc4ccc(C(=O)NO)cc4)Cc4cccnc4)c3C2=O)C(=O)N1 (stereo unspecified) | 
inactive | inactive | 0.738 h | O=C1CCC(N2C(=O)c3cccc(NCCCn4cc(CN(Cc5ccc(C(=O)NO)cc5)Cc5cccnc5)nn4)c3C2=O)C(=O)N1 (stereo unspecified) | 
inactive | inactive | 1.45 h | O=C1CCC(N2C(=O)c3cccc(NCCCCN(Cc4ccc(C(=O)NO)cc4)Cc4cccnc4)c3C2=O)C(=O)N1 (stereo unspecified) | 
inactive | inactive | 0.62 h | O=C1CCC(N2C(=O)c3cccc(NCCOCCOCCn4cc(CN(Cc5ccc(C(=O)NO)cc5)Cc5cccnc5)nn4)c3C2=O)C(=O)N1 (stereo unspecified) | pIC50 [8]: < 5.00
inactive | inactive | 0.762 h | O=C1CCC(N2C(=O)c3cccc(NCCCCCCn4cc(CCCCN(Cc5ccc(C(=O)NO)cc5)Cc5cccnc5)nn4)c3C2=O)C(=O)N1 (stereo unspecified) | 
